In patent publication US11331299B2, “Medicinal use of serrulatane diterpenes” (The University of Sydney, priority 2016, dated 2022):
Read-outs that look alike come from different tables or passages of the source.

Legend:
Histamine H1 = target: T1, Histamine H1 (Homo sapiens, UniProt P35367); experiment: Histamine H1 radio ligand binding
T1 construct: expressed in transfected cells; host or cells: Chem-1 cells
Procedure: (§1) The in vitro pharmacological studies were conducted by Eurofins PanLab (Taiwan) using the parameters shown in Table 13 with respect to appropriate literature references.

Chemokine CX3CR1 = target: T2, Chemokine CX3CR1 (Homo sapiens, UniProt P49238); experiment: Chemokine CX3CR1 radio ligand binding; conditions: assay year 2015
T2 construct: expressed in transfected cells; host or cells: Chem-1 cells
T2 sequence (P49238 1-355): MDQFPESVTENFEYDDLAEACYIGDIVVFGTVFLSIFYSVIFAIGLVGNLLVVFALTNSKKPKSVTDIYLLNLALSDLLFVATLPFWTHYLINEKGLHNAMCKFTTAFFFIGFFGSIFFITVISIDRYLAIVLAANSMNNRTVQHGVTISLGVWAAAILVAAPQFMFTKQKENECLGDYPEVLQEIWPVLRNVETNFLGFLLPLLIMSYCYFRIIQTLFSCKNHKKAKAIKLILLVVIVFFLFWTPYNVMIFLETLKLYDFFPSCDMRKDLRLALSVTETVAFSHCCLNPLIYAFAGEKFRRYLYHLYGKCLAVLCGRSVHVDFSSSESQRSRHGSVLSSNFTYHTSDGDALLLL
Procedure: as §1

SETD8 (h) = target: T3, SETD8 (h) (Homo sapiens, UniProt Q9NQR1); experiment: Epigenetic enzyme assay, Methyltransferases (MTs); type: biochemical; conditions: 10 μM; read-out: % Inhibition of Control Values
T3 sequence (Q9NQR1 1-393): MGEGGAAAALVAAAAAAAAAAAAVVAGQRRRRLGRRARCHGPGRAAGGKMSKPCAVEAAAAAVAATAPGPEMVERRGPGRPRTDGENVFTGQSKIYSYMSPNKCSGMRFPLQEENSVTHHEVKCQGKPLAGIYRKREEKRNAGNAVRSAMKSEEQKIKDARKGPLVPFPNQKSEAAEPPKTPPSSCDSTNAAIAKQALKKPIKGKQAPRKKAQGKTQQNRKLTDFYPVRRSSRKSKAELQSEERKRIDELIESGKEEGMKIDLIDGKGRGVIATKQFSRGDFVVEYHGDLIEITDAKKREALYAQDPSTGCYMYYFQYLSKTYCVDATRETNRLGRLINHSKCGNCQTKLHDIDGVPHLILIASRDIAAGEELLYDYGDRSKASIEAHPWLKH

WHSC1(h) (NSD2(h)) = target: T4, WHSC1(h) (NSD2(h)) (Homo sapiens, UniProt O96028); experiment: Epigenetic enzyme assay, Methyltransferases (MTs); type: biochemical; conditions: 10 μM; read-out: % Inhibition of Control Values
T4 sequence (O96028 1-1365): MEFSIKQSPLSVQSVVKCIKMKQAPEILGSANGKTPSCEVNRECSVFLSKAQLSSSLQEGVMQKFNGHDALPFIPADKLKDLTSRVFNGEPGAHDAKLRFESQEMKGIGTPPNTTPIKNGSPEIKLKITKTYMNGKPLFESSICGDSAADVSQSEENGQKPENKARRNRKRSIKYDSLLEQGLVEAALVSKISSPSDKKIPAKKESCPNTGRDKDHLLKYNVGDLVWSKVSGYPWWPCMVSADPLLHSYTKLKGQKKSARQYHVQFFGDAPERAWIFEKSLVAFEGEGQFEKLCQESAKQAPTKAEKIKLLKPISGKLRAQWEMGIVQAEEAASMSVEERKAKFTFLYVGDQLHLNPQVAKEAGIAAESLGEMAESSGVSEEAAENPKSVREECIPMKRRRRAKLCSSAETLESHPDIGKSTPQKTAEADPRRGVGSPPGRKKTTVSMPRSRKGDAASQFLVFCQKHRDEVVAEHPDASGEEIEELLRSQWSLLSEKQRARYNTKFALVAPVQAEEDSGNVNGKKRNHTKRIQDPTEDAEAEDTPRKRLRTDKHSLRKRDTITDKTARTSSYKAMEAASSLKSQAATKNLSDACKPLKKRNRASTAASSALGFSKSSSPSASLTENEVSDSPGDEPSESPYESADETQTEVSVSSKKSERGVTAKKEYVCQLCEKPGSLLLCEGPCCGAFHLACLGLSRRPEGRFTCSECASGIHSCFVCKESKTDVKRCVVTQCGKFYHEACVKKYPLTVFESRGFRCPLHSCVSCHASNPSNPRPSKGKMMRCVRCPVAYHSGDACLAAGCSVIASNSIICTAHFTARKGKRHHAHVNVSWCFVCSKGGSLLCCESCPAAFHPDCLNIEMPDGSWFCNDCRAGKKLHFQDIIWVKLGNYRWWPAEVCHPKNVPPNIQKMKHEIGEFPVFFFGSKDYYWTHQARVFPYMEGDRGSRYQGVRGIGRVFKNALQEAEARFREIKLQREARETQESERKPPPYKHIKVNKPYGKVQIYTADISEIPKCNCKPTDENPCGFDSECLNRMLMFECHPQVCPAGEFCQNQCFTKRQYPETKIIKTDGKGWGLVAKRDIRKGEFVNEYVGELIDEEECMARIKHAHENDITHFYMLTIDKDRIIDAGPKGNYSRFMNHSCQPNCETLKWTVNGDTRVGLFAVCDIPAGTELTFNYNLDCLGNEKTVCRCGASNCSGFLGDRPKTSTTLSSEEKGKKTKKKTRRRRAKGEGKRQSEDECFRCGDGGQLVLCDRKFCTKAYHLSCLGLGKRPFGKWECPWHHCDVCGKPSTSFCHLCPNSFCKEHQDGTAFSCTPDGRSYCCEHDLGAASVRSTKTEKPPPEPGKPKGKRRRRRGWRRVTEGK

ATAD2B (h) bromodomain = target: T5, ATAD2B (h) bromodomain (Homo sapiens, UniProt Q9ULI0); experiment: Epigenetic binding assay, Bromodomain; conditions: 10 μM; read-out: % Inhibition of Control Specific Binding
T5 construct: ATAD2B bromodomain; host or cells: E. coli
T5 sequence (Q9ULI0 951-1066 limits assumed): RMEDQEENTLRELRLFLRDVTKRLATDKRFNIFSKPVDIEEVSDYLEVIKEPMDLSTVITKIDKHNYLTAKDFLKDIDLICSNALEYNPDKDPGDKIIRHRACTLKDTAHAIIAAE

MLL complex (h) = MLL complex (h) (Homo sapiens, UniProt Q03164); experiment: Epigenetic enzyme assay, Methyltransferases (MTs); type: biochemical; conditions: for inhibition at 10 µM: read-out: % Inhibition of Control Values
PRMT6 (h) = PRMT6 (h) (Homo sapiens, UniProt Q96LA8); experiment: Epigenetic enzyme assay, Methyltransferases (MTs); type: biochemical; conditions: read-out: % Inhibition of Control Values
[1] = target: T6, Thiopurine S-methyltransferase (h) (Homo sapiens, UniProt P51580); experiment: Epigenetic enzyme assay, Small molecule methyltransferases; type: biochemical; conditions: read-out: % Inhibition of Control Values
T6 sequence (P51580 1-245): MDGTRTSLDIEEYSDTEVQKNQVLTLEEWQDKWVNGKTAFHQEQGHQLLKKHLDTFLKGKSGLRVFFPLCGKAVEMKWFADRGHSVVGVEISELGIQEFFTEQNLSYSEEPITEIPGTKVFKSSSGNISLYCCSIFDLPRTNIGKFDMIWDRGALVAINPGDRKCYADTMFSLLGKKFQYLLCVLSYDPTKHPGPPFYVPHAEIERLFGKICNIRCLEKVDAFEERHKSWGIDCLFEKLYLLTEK

[2] = assay year 2014, read-out: % Control Response
[3] = assay year 2015, read-out: % Control Response

T1 sequence (P35367 whole entry): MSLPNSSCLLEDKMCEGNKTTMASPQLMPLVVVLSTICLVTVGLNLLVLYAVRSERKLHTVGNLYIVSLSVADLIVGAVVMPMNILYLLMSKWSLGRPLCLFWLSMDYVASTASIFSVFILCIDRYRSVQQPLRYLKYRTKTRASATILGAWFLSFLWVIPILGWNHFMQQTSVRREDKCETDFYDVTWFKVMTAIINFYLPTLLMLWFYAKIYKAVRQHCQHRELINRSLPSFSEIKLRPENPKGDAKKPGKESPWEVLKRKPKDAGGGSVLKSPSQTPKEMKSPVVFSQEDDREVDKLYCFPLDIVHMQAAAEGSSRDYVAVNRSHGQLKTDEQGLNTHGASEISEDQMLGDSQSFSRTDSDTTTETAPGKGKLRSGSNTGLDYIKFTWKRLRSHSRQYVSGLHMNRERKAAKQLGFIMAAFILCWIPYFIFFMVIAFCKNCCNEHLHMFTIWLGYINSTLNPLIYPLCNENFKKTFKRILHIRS
Chain of PRMT6 (h) (Q96LA8 whole entry): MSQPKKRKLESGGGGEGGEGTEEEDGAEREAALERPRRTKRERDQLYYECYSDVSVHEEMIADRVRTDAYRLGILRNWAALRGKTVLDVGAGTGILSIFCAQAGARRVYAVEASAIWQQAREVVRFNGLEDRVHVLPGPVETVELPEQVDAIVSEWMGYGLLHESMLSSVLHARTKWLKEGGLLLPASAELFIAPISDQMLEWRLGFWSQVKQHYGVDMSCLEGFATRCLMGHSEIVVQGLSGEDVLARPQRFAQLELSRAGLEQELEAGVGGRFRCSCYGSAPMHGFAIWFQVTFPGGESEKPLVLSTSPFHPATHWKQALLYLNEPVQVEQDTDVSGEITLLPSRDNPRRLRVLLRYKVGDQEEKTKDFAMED

Compound	remaining activity at 10 µM (Histamine H1; [2]) [%]	remaining activity at 10 µM (Histamine H1; [3]) [%]	percent of control response at 10 µM (Chemokine CX3CR1) [%]	inhibition at 10 µM (SETD8 (h)) [%]	inhibition at 10 µM (WHSC1(h) (NSD2(h))) [%]	inhibition at 10 µM (ATAD2B (h) bromodomain) [%]	inhibition at 10 µM (MLL complex (h)) [%]	inhibition at 10 µM (PRMT6 (h)) [%]	inhibition at 10 µM [1] [%]	IC50 (MLL complex (h); read-out: Reference IC50) [nM]
CC(C)=CCC[C@H](CO)[C@@H]1CC[C@@H](C)c2c1cc(C)c(O)c2O [Compound 1, 7,8,18-trihydroxyserrulat-14-ene]	85	97	-1	4	3	52	2	49	40	–
CC(C)=CCC[C@@H]1C(O)Oc2c(C)cc(O)c3c2[C@H]1CC[C@H]3C (stereo partly drawn) [Compound 2, 5,18-epoxyserrulat-14-en-8,18-diol]	66	60	5	25	14	25	22	57	28	–
CC(C)=CCC[C@@H]1COc2c(C)cc(O)c3c2[C@H]1CC[C@H]3C [Compound 3, 5,18-epoxy-8-hydroxyserrulat-14-ene]	–	50	7	-10	7	28	11	34	19	–
Nc1ncnc2c1ncn2[C@@H]1O[C@H](CSCC[C@H](N)C(=O)O)[C@@H](O)[C@H]1O [SAH]	–	–	–	–	–	–	–	–	–	970
